According to patent US12583854B2, “KRAS G12C inhibitors and methods of using the same” (Amgen Inc., priority 2018, dated 2026):

These compounds were tested against GDP-bound KRAS protein (aa 1-169), containing both G12C and C118A amino acid substitutions (Homo sapiens, UniProt P01116, C118A/G12C) (assay: Coupled Nucleotide Exchange Assay). Conditions: 5 min compound pre-incubation; SOS-mediated nucleotide exchange, AlphaScreen.
Assay type: biochemical
Procedure: Following compound pre-incubation, purified SOS protein (aa 564-1049) and GTP (Roche 10106399001) were added to the assay wells and incubated for an additional 30 min. To determine the extent of inhibition of SOS-mediated nucleotide exchange, purified GST-tagged cRAF (aa 1-149), nickel chelate AlphaLISA acceptor beads (PerkinElmer AL108R), and AlphaScreen glutathione donor beads (PerkinElmer 6765302) were added to the assay wells and incubated for 10 minutes. The assay plates were then read on a PerkinElmer EnVision Multilabel Reader, using AlphaScreen® technology, and data were analyzed using a 4-parameter logistic model to calculate IC50 values.

GDP-bound KRAS protein (aa 1-169), containing both G12C and C118A amino acid substitutions, sequence (P01116 1-169 isoform P01116-2 G12C/C118A): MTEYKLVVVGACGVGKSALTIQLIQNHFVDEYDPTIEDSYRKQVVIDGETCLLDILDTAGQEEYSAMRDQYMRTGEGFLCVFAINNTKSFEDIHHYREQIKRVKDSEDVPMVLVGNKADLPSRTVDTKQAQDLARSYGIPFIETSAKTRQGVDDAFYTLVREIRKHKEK

Question: Which “Coupled exchange IC50 (5 min; μM)” value does the source give for `C=CC(=O)N1[C@H](C)CN(c2c(C#N)c(=O)n(-c3c(C)ccnc3C(C)C)c3nc(-c4ccccc4F)c(Cl)cc23)C[C@@H]1C` (single isomer, unassigned) [Example 7.6] here?
Answer: 0.32 µM

Question: For `C=CC(=O)N1CCN(c2c(C#N)c(=O)n(-c3c(C)ccnc3C(C)C)c3nc(-c4ccccc4C(C)C)c(Cl)cc23)CC1` (single isomer, unassigned) [Example 11.2, 4-(4-acryloylpiperazin-1-yl)-6-chloro-1-(2-isopropyl-4-methylpyridin-3-yl)-7-(2-isopropylphenyl)-2-oxo-1,2-dihydro-1,8-naphthyridine-3-carbonitrile], which “Coupled exchange IC50 (5 min; μM)” value is on record?
Answer: 1.96 µM

Question: With `C=CC(=O)N1CCN(c2c(C#N)c(=O)n(-c3c(N(C)C)ccnc3C(C)C)c3nc(-c4ccccc4F)c(Cl)cc23)CC1` (single isomer, unassigned) [Example 8.5, 4-(4-acryloylpiperazin-1-yl)-6-chloro-1-(4-(dimethylamino)-2-isopropylpyridin-3-yl)-7-(2-fluorophenyl)-2-oxo-1,2-dihydro-1,8-naphthyridine-3-carbonitrile] as the compound, how does the “Coupled exchange IC50 (5 min; μM)” value read?
Answer: 3.26 µM

Question: How did the “Coupled exchange IC50 (5 min; μM)” value turn out when `C=CC(=O)N1CCN(c2c(C#N)c(=O)n(-c3c(C)ccnc3C(C)C)c3nc(Cl)c(Cl)cc23)CC1` [Example 9.2, 4-(4-acryloylpiperazin-1-yl)-6,7-dichloro-1-(2-isopropyl-4-methylpyridin-3-yl)-2-oxo-1,2-dihydro-1,8-naphthyridine-3-carbonitrile] was run?
Answer: 36 µM

Question: With `C=CC(=O)N1CCN(c2c(C#N)c(=O)n(-c3c(C(C)C)ccnc3C(C)C)c3nc(-c4ccccc4C)c(F)cc23)CC1` [Example 10.3, 4-(4-acryloylpiperazin-1-yl)-1-(2,4-diisopropylpyridin-3-yl)-6-fluoro-2-oxo-7-(o-tolyl)-1,2-dihydro-1,8-naphthyridine-3-carbonitrile] as the compound, how does the “Coupled exchange IC50 (5 min; μM)” value read?
Answer: 0.83 µM

Question: Which “Coupled exchange IC50 (5 min; μM)” value does the source give for `C=CC(=O)N1CCN(c2c(C#N)c(=O)n(-c3c(C(C)C)ccnc3C(C)C)c3nc(Cl)c(F)cc23)CC1` [Example 9, 4-(4-Acryloylpiperazin-1-yl)-7-chloro-1-(2,4-diisopropylpyridin-3-yl)-6-fluoro-2-oxo-1,2-dihydro-1,8-naphthyridine-3-carbonitrile] here?
Answer: 82.1 µM

Question: For `C=CC(=O)N1CCN(c2c(C#N)c(=O)n(-c3c(N(C)C)ccnc3C(C)C)c3nc(-c4ccccc4F)c(Cl)cc23)CC1` (single isomer, unassigned) [Example 8.3, 4-(4-acryloylpiperazin-1-yl)-6-chloro-1-(4-(dimethylamino)-2-isopropylpyridin-3-yl)-7-(2-fluorophenyl)-2-oxo-1,2-dihydro-1,8-naphthyridine-3-carbonitrile], which “Coupled exchange IC50 (5 min; μM)” value is on record?
Answer: 0.42 µM

Question: How did the “Coupled exchange IC50 (5 min; μM)” value turn out when `C=CC(=O)N1CCN(c2c(C#N)c(=O)n(-c3c(C(C)C)ccnc3C(C)C)c3nc(-c4ccccc4F)c(F)cc23)CC1` [Example 10.5, 4-(4-acryloylpiperazin-1-yl)-1-(2,4-diisopropylpyridin-3-yl)-6-fluoro-7-(2-fluorophenyl)-2-oxo-1,2-dihydro-1,8-naphthyridine-3-carbonitrile] was run?
Answer: 0.36 µM

Question: Which “Coupled exchange IC50 (5 min; μM)” value does the source give for `C=CC(=O)N1CCN(c2c(C#N)c(=O)n(-c3c(C(C)C)ccnc3C(C)C)c3nc(-c4ccccc4C)c(F)cc23)CC1` [Example 10.2, 4-(4-acryloylpiperazin-1-yl)-1-(2,4-diisopropylpyridin-3-yl)-6-fluoro-2-oxo-7-(o-tolyl)-1,2-dihydro-1,8-naphthyridine-3-carbonitrile] here?
Answer: 0.45 µM

Question: For `C=CC(=O)N1CCN(c2c(C#N)c(=O)n(-c3c(CN(C)C)ccnc3C(C)C)c3nc(-c4ccccc4F)c(Cl)cc23)CC1` [Example 2, 4-(4-Acryloylpiperazin-1-yl)-6-chloro-1-(4-((dimethylamino)methyl)-2-isopropylpyridin-3-yl)-7-(2-fluorophenyl)-2-oxo-1,2-dihydro-1,8-naphthyridine-3-carbonitrile], which “Coupled exchange IC50 (5 min; μM)” value is on record?
Answer: 0.061 µM

Question: How did the “Coupled exchange IC50 (5 min; μM)” value turn out when `C=CC(=O)N1CCN(c2c(C#N)c(=O)n(-c3c(C)ccnc3C(C)C)c3nc(-c4ccccc4F)c(Cl)cc23)C[C@H]1C` (single isomer, unassigned) [Example 6.6] was run?
Answer: 0.92 µM

Question: How did the “Coupled exchange IC50 (5 min; μM)” value turn out when `C=CC(=O)N1CCN(c2c(C#N)c(=O)n(-c3c(CN(C)C)ccnc3C(C)C)c3nc(-c4ccccc4F)c(Cl)cc23)CC1` [Example 2.2, 4-(4-acryloylpiperazin-1-yl)-6-chloro-1-(4-((dimethylamino)methyl)-2-isopropylpyridin-3-yl)-7-(2-fluorophenyl)-2-oxo-1,2-dihydro-1,8-naphthyridine-3-carbonitrile] was run?
Answer: 5.71 µM

Question: `C=CC(=O)N1CCN(c2c(C#N)c(=O)n(-c3c(C)ccnc3C(C)C)c3nc(-c4ccccc4F)c(Cl)cc23)CC1` [Example 6.4, 4-(4-acryloylpiperazin-1-yl)-6-chloro-7-(2-fluorophenyl)-1-(2-isopropyl-4-methylpyridin-3-yl)-2-oxo-1,2-dihydro-1,8-naphthyridine-3-carbonitrile] was tested. Which “Coupled exchange IC50 (5 min; μM)” value did it give?
Answer: 0.73 µM

Question: How did the “Coupled exchange IC50 (5 min; μM)” value turn out when `C=CC(=O)N1CCN(c2c(C#N)c(=O)n(-c3c(C)ccnc3C(C)C)c3nc(-c4ccccc4C)c(Cl)cc23)CC1` (single isomer, unassigned) [Example 11, 4-(4-Acryloylpiperazin-1-yl)-6-chloro-1-(2-isopropyl-4-methylpyridin-3-yl)-2-oxo-7-(o-tolyl)-1,2-dihydro-1,8-naphthyridine-3-carbonitrile] was run?
Answer: 0.71 µM

Question: `C=CC(=O)N1CCN(c2c(C#N)c(=O)n(-c3c(C(C)C)ccnc3C(C)C)c3nc(-c4ccccc4C)c(F)cc23)CC1` [Example 10, 4-(4-Acryloylpiperazin-1-yl)-1-(2,4-diisopropylpyridin-3-yl)-6-fluoro-2-oxo-7-(o-tolyl)-1,2-dihydro-1,8-naphthyridine-3-carbonitrile] was tested. Which “Coupled exchange IC50 (5 min; μM)” value did it give?
Answer: 0.94 µM

Question: For `C=CC(=O)N1C[C@H](C)N(c2c(C#N)c(=O)n(-c3c(C)ccnc3C(C)C)c3nc(-c4ccccc4F)c(Cl)cc23)C[C@H]1C` (single isomer, unassigned) [Example 7.5], which “Coupled exchange IC50 (5 min; μM)” value is on record?
Answer: 2.27 µM

Question: How did the “Coupled exchange IC50 (5 min; μM)” value turn out when `C=CC(=O)N1CCN(c2c(C#N)c(=O)n(-c3c(C(C)C)ncnc3C(C)C)c3nc(Cl)c(Cl)cc23)CC1` [Example 9.1, 4-(4-acryloylpiperazin-1-yl)-6,7-dichloro-1-(4,6-diisopropylpyrimidin-5-yl)-2-oxo-1,2-dihydro-1,8-naphthyridine-3-carbonitrile] was run?
Answer: 25.1 µM

Question: For `C=CC(=O)N1CCN(c2c(C#N)c(=O)n(-c3c(C)ccnc3C(C)C)c3nc(-c4ccccc4F)c(Cl)cc23)C[C@@H]1C` [Example 6.1, (S)-4-(4-acryloyl-3-methylpiperazin-1-yl)-6-chloro-7-(2-fluorophenyl)-1-(2-isopropyl-4-methylpyridin-3-yl)-2-oxo-1,2-dihydro-1,8-naphthyridine-3-carbonitrile], which “Coupled exchange IC50 (5 min; μM)” value is on record?
Answer: 1.57 µM

Question: Which “Coupled exchange IC50 (5 min; μM)” value does the source give for `C=CC(=O)N1CCN(c2c(C#N)c(=O)n(-c3c(C(C)C)ccnc3C(C)C)c3nc(-c4ccccc4F)c(F)cc23)CC1` [Example 10.4, 4-(4-acryloylpiperazin-1-yl)-1-(2,4-diisopropylpyridin-3-yl)-6-fluoro-7-(2-fluorophenyl)-2-oxo-1,2-dihydro-1,8-naphthyridine-3-carbonitrile] here?
Answer: 0.44 µM

Question: For `C=CC(=O)N1CCN(c2c(C#N)c(=O)n(-c3c(CN(C)C)ccnc3C(C)C)c3nc(-c4ccccc4F)c(Cl)cc23)CC1` [Example 2.1, 4-(4-acryloylpiperazin-1-yl)-6-chloro-1-(4-((dimethylamino)methyl)-2-isopropylpyridin-3-yl)-7-(2-fluorophenyl)-2-oxo-1,2-dihydro-1,8-naphthyridine-3-carbonitrile], which “Coupled exchange IC50 (5 min; μM)” value is on record?
Answer: 0.18 µM

Question: Which “Coupled exchange IC50 (5 min; μM)” value does the source give for `C=CC(=O)N1C[C@H](C)N(c2c(C#N)c(=O)n(-c3c(C)ccnc3C(C)C)c3nc(-c4ccccc4F)c(Cl)cc23)C[C@H]1C` (single isomer, unassigned) [Example 7.4] here?
Answer: 17.6 µM

Question: `C=CC(=O)N1CCN(c2c(C#N)c(=O)n(-c3c(C(C)C)ncnc3C(C)C)c3nc(-c4ccccc4CN(C)C)c(Cl)cc23)CC1` [Example 1, 4-(4-Acryloylpiperazin-1-yl)-6-chloro-1-(4,6-diisopropylpyrimidin-5-yl)-7-(2-((dimethylamino)methyl)phenyl)-2-oxo-1,2-dihydro-1,8-naphthyridine-3-carbonitrile] was tested. Which “Coupled exchange IC50 (5 min; μM)” value did it give?
Answer: 4.13 µM

Question: For `C=CC(=O)N1CCN(c2c(C#N)c(=O)n(-c3c(C(C)C)ccnc3C(C)C)c3nc(-c4ccccc4F)c(F)cc23)CC1` [Example 10.1, 4-(4-acryloylpiperazin-1-yl)-1-(2,4-diisopropylpyridin-3-yl)-6-fluoro-7-(2-fluorophenyl)-2-oxo-1,2-dihydro-1,8-naphthyridine-3-carbonitrile], which “Coupled exchange IC50 (5 min; μM)” value is on record?
Answer: 0.65 µM

Question: For `C=CC(=O)N1CCN(c2c(C#N)c(=O)n(-c3c(C(C)C)ccnc3N(C)C)c3nc(-c4ccccc4F)c(Cl)cc23)CC1` (single isomer, unassigned) [Example 8.7, 4-(4-acryloylpiperazin-1-yl)-6-chloro-1-(2-(dimethylamino)-4-isopropylpyridin-3-yl)-7-(2-fluorophenyl)-2-oxo-1,2-dihydro-1,8-naphthyridine-3-carbonitrile], which “Coupled exchange IC50 (5 min; μM)” value is on record?
Answer: 1.55 µM
